Measurements published in the supplement of paper PMC11451515.

Test system: NOMO1
Test: cell viability relative to DMSO control; higher = less cytotoxic
Details: 48 h
Procedure, shortened: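 Cells were incubated for 48 h at 37°C before CellTiter-Glo One luminescence was read. The cells were NOMO1 or SEM (500 cells/well) or P12-Ichikawa (1000 cells/well) leukemia cells, adapted for at least four passages in each medium and seeded in 1536-well plates (5 μl). Dosing used library compounds in DMSO applied by pin over 11 threefold points, 47 μM to 0.79 nM. Viability is the per-plate percentage of DMSO wells, with cell-free wells as background.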

[1] = HPLM + 10% dialyzed FBS, 0.000781 µM
[2] = HPLM + 10% dialyzed FBS, 0.00234 µM
[3] = HPLM + 10% dialyzed FBS, 0.00702 µM
[4] = HPLM + 10% dialyzed FBS, 0.0211 µM
[5] = HPLM + 10% dialyzed FBS, 0.0632 µM
[6] = HPLM + 10% dialyzed FBS, 0.19 µM
[7] = HPLM + 10% dialyzed FBS, 0.569 µM
[8] = HPLM + 10% dialyzed FBS, 1.71 µM
[9] = HPLM + 10% dialyzed FBS, 5.12 µM
[10] = HPLM + 10% dialyzed FBS, 15.4 µM
[11] = HPLM + 10% dialyzed FBS, 46.1 µM
[12] = RPMI 5 mM glucose + 10% FBS, 0.000781 µM
[13] = RPMI 5 mM glucose + 10% FBS, 0.00234 µM
[14] = RPMI 5 mM glucose + 10% FBS, 0.00702 µM
[15] = RPMI 5 mM glucose + 10% FBS, 0.0211 µM
[16] = RPMI 5 mM glucose + 10% FBS, 0.0632 µM
[17] = RPMI 5 mM glucose + 10% FBS, 0.19 µM
[18] = RPMI 5 mM glucose + 10% FBS, 0.569 µM
[19] = RPMI 5 mM glucose + 10% FBS, 1.71 µM
[20] = RPMI 5 mM glucose + 10% FBS, 5.12 µM
[21] = RPMI 5 mM glucose + 10% FBS, 15.4 µM
[22] = RPMI 5 mM glucose + 10% FBS, 46.1 µM
[23] = RPMI 5 mM glucose + 10% dialyzed FBS, 0.000781 µM
[24] = RPMI 5 mM glucose + 10% dialyzed FBS, 0.00234 µM
[25] = RPMI 5 mM glucose + 10% dialyzed FBS, 0.00702 µM
[26] = RPMI 5 mM glucose + 10% dialyzed FBS, 0.0211 µM
[27] = RPMI 5 mM glucose + 10% dialyzed FBS, 0.0632 µM
[28] = RPMI 5 mM glucose + 10% dialyzed FBS, 0.19 µM
[29] = RPMI 5 mM glucose + 10% dialyzed FBS, 0.569 µM
[30] = RPMI 5 mM glucose + 10% dialyzed FBS, 1.71 µM
[31] = RPMI 5 mM glucose + 10% dialyzed FBS, 5.12 µM
[32] = RPMI 5 mM glucose + 10% dialyzed FBS, 15.4 µM
[33] = RPMI 5 mM glucose + 10% dialyzed FBS, 46.1 µM

Compound	cell viability [1]	cell viability [2]	cell viability [3]	cell viability [4]	cell viability [5]	cell viability [6]	cell viability [7]	cell viability [8]	cell viability [9]	cell viability [10]	cell viability [11]	cell viability [12]	cell viability [13]	cell viability [14]	cell viability [15]	cell viability [16]	cell viability [17]	cell viability [18]	cell viability [19]	cell viability [20]	cell viability [21]	cell viability [22]	cell viability [23]	cell viability [24]	cell viability [25]	cell viability [26]	cell viability [27]	cell viability [28]	cell viability [29]	cell viability [30]	cell viability [31]	cell viability [32]	cell viability [33]
COc1cnc(N[S+](=O)([O-])c2ccc(N)cc2)nc1	111%	114%	106%	125%	125%	119%	114%	130%	114%	84.5%	31.1%	122%	118%	114%	112%	124%	131%	138%	128%	125%	110%	48.2%	110%	118%	123%	125%	121%	127%	114%	125%	98.5%	97.5%	63.5%
OC(=O)C1=CC=C(NC2=NC3=C(C\N=C(/C4=CC(=CC=C34)Cl)C5=C(F)C=CC=C5F)C=N2)C=C1	87.2%	96.6%	104%	122%	97.9%	103%	87.6%	45.2%	44%	59.1%	72%	81.9%	96.8%	80%	91.3%	90.4%	79.9%	82.3%	32.8%	37.8%	56.4%	56.4%	93.2%	95.7%	89.2%	94.1%	89.8%	97.8%	77.3%	35%	38.8%	55.9%	61.4%
COc1cccc2cc(-c3nc(C4CCC(C(=O)O)CC4)n4ncnc(N)c34)[nH]c12 (centres undefined)	116%	124%	102%	119%	99.8%	94.7%	68.2%	38.7%	34.8%	37.3%	47.1%	109%	113%	107%	106%	105%	105%	98.4%	55.3%	30%	26.3%	19.9%	105%	104%	108%	115%	102%	105%	88.1%	53.6%	41.7%	26.9%	27.8%
